The source of these data is paper PMC9570042, “Impairment of Nucleolin Activity and Phosphorylation by a Trachylobane Diterpene from Psiadia punctulata in Cancer Cells” (International Journal of Molecular Sciences, 2022).

Test [1] deals with T1, hNcl (Homo sapiens, UniProt P19338). Put plainly: CETSA apparent melting temperature of hNcl in HeLa cells. In kind it is cell-based. More on the design: endogenous in cells; host or cells: HeLa (cervical carcinoma). Conditions: 20 μM, 2 h. The procedure:
(§1) The 12/hNcl interaction was also investigated using CETSA and its effect on the hNcl denaturation temperature (Tm) in the cells was analyzed. HeLa cells incubated with 12, oridonin or the vehicle were heated to different temperatures in the 38–61 °C range, and the amount of soluble hNcl remaining at each T value was measured. […] Further CETSAs were performed using various concentrations of the compound (1–20 μM) and the amount of hNcl resisting thermal denaturation at 55.5 °C was then reported in a graph as a function of the concentration of 12 used (Figure S3 and Figure 1E). This experiment allowed the calculation of an EC50 (the compound concentration producing half of the maximum effect on hNcl stabilization) of 5 μM.
HeLa cells were seeded at 1.5 × 10^6 in 100 mm culture dishes. After 24 h, the cells were treated with compound 12 or oridonin (final concentration 20 μM) and incubated for 2 h in a CO2 incubator at 37 °C. The cells were then collected and centrifuged, and the cell pellets were washed with PBS and gently suspended in 1 mL PBS supplemented with protease inhibitors. […] The cells were then lysed and analyzed, as reported above.

Test [2] addresses T1, hNcl. Put plainly: CETSA-based EC50 determination in HeLa cells. More on the design: endogenous in cells; host or cells: HeLa (cervical carcinoma). Conditions: 2 h, heated at 55.5 °C, read-out: EC50 (concentration producing half of the maximum effect on hNcl stabilization). In kind it is cell-based. The procedure:
as §1
HeLa cells were seeded at 1.0 × 10^5 in 12-well plates. The treatment was performed for 2 h using compound 12 at the following concentrations: 0.1, 0.5, 1, 2, 5, 10, 15, and 20 μM. Subsequently, the drug-containing media were removed through centrifugation; the cells were washed with PBS, aliquoted in 0.2 mL tubes, and then heated at 55.5 °C (Tm of hNcl) for 3 min. They were then lysed and analyzed, as reported above. The hNcl/Gapdh density ratio measured at the […] concentration producing the maximum stabilizing effect was set as 100%.

Test [3] concerns the target T1, hNcl. Put plainly: Surface plasmon resonance with immobilized hNcl. The conditions noted are these: SPR, 25 °C. In kind it is binding. Here is the method: A Biacore 3000 optical biosensor was used to conduct Surface Plasmon Resonance (SPR) experiments. Proteins (hNcl and RBD 1,2) were dissolved at 100 µg/mL in 50 mM sodium acetate at a pH 4.5 and injected at a flow rate of 5 µL/min on a research-grade CM5 sensor chip (GE Healthcare, Chicago, IL, USA) to achieve immobilization. A standard amine-coupling protocol was used. Compound 12 was dissolved in 100% DMSO to obtain 4 mM solutions and diluted in […] (v/v) in PBS (10 mM NaH2PO4, 137 mM NaCl, 2.7 mM KCl pH 7.4). The final concentration of DMSO was 0.1% (v/v). This stock solution was used as a starting point to produce a four-concentration points series (0.025, 0.2, 1, and 4 µM). Measurements were performed at 25 °C, using a flow rate of 5 µL/min flow rate and adopting an association time of 60 s; dissociation of the complex was monitored for 300 s. The resulting sensorgrams were elaborated through the BIAevaluation software (GE Healthcare). Thermodynamic constants were calculated by adequately fitting the experimental curves with a single-site bimolecular interaction model.

The subject of test [4] is hNcl. Put plainly: Western blot of hNcl and phosphorylated hNcl in HeLa cells. In kind it is cell-based, human. The conditions noted are these: cancer cells. An excerpt: Finally, we determined whether the treatment with 12 could affect hNcl expression, phosphorylation, and cellular localization.
In general terms: Immunoblotting shows a protein as a band on a membrane.

T1 sequence (P19338 whole entry): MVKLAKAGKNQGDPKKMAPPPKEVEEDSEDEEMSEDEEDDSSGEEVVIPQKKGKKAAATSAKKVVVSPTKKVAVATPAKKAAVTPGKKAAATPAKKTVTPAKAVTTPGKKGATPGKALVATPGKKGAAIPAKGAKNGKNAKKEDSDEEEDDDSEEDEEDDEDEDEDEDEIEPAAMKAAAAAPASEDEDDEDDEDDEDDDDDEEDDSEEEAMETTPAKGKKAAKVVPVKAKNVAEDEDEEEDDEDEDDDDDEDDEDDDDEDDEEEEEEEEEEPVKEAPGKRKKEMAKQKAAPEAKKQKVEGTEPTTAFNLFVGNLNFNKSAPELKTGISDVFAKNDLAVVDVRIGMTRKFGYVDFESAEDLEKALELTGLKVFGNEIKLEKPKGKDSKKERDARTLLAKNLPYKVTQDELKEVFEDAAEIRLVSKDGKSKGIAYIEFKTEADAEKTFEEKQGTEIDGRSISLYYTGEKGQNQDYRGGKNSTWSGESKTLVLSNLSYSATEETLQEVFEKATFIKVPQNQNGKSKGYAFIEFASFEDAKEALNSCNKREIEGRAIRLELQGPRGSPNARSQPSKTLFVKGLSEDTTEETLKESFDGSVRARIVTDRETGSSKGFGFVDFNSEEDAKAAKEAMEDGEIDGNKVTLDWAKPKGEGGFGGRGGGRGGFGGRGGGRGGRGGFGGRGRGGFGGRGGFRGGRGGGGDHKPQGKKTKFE

As for `CC1(CO)CCCC2(C)C1C(O)CC13CC4C(CC12)C4(C(=O)O)C3` (stereo not drawn) [compound 12, 6,19-dihydroxy-ent-trachiloban-17-oic acid], the “Tm of hNcl in cells incubated with compound” value on hNcl [1] was determined as 55.5 °C. Further, the “stabilization of hNcl (hNcl vs. T graphs) compared with oridonin” value at hNcl [1] (38–61 °C) was “stabilized hNcl more than oridonin did”. The EC50 at hNcl [2] is 5000 nM. In addition, the koff on hNcl [3] amounted to 0.0037 ± 0.005 s⁻¹. At hNcl [3] (read-out: dissociation constant (KD)), the Kd was 58 ± 3 nM. Also, the hNcl levels result in the test on hNcl [4] (20 μM, 4, 6, or 16 h) is listed as “did not modify”. Besides, the “phosphorylation of hNcl” value in the test on hNcl [4] (20 μM, 4 h treatment) is listed as “inhibited”.

In general, koff refers to a measure of how fast the partners let go of each other. Higher therefore signals a short-lived complex. The term Kd denotes the concentration at which binding is half-saturated.
